According to ChEMBL document CHEMBL1143091, “Synthesis and SAR studies of biaryloxy-substituted triazoles as antifungal agents” (2008):
Values after ≈ are worked out from the molar mass of the structure shown.

Legend:
Candida tropicalis = experiment: Antimicrobial activity against Candida tropicalis isolates; assay type: functional
Candida parapsilosis = experiment: Antimicrobial activity against Candida parapsilosis isolates; conditions: Lodderomyces parapsilosis
Trichophyton rubrum = experiment: Antimicrobial activity against Trichophyton rubrum isolates; assay type: functional
Candida albicans = experiment: Antimicrobial activity against Candida albicans ATCC 76615; assay type: functional
Fonsecaea compacta = experiment: Antimicrobial activity against Fonsecaea compacta isolates; assay type: functional
Aspergillus fumigatus = experiment: Antimicrobial activity against Aspergillus fumigatus isolates; assay type: functional
Nannizzia gypsea = experiment: Antimicrobial activity against Microsporum gypseum isolates; assay type: functional
Cryptococcus neoformans = experiment: Antimicrobial activity against Cryptococcus neoformans ATCC 32609; assay type: functional

| SMILES | MIC (Candida tropicalis) | MIC (Candida parapsilosis) | MIC (Trichophyton rubrum) | MIC (Candida albicans) | MIC (Fonsecaea compacta) | MIC (Aspergillus fumigatus) | MIC (Nannizzia gypsea) | MIC (Cryptococcus neoformans) |
| --- | --- | --- | --- | --- | --- | --- | --- | --- |
| OCCNCc1ccc(-c2ccc(OCC(O)(Cn3cncn3)c3ccc(F)cc3F)cc2)cc1 (stereo unspecified) | 1 µg/mL (≈ 2.08 µM) | 1 µg/mL (≈ 2.08 µM) | 1 µg/mL (≈ 2.08 µM) | 4 µg/mL (≈ 8.32 µM) | 16 µg/mL (≈ 33.3 µM) | > 64 µg/mL | 16 µg/mL (≈ 33.3 µM) | 64 µg/mL (≈ 133 µM) |
| O=C(CN1CCCCC1)Nc1ccc(-c2ccc(OCC(O)(Cn3cncn3)c3ccc(F)cc3F)cc2)cn1 (stereo unspecified) | 0.0156 µg/mL (≈ 0.0284 µM) | 0.0625 µg/mL (≈ 0.114 µM) | 0.25 µg/mL (≈ 0.456 µM) | 0.0625 µg/mL (≈ 0.114 µM) | 1 µg/mL (≈ 1.82 µM) | > 64 µg/mL | 0.25 µg/mL (≈ 0.456 µM) | 1 µg/mL (≈ 1.82 µM) |
| Nc1ccc(-c2ccc(OCC(O)(Cn3cncn3)c3ccc(F)cc3F)cc2)cn1 (stereo unspecified) | 0.25 µg/mL (≈ 0.59 µM) | 0.25 µg/mL (≈ 0.59 µM) | 0.0156 µg/mL (≈ 0.0368 µM) | 0.0625 µg/mL (≈ 0.148 µM) | 0.0625 µg/mL (≈ 0.148 µM) | 4 µg/mL (≈ 9.45 µM) | 0.25 µg/mL (≈ 0.59 µM) | 64 µg/mL (≈ 151 µM) |
| Oc1ccc(CNc2ccc(-c3ccc(OCC(O)(Cn4cncn4)c4ccc(F)cc4F)cc3)cn2)cc1 (stereo unspecified) | 0.0156 µg/mL (≈ 0.0295 µM) | 0.0625 µg/mL (≈ 0.118 µM) | > 64 µg/mL | 0.0625 µg/mL (≈ 0.118 µM) | 1 µg/mL (≈ 1.89 µM) | > 64 µg/mL | 4 µg/mL (≈ 7.55 µM) | > 64 µg/mL |
| COc1ccc(C(=O)Nc2ccc(-c3ccc(OCC(O)(Cn4cncn4)c4ccc(F)cc4F)cc3)cn2)cc1 (stereo unspecified) | 0.25 µg/mL (≈ 0.448 µM) | 0.25 µg/mL (≈ 0.448 µM) | 0.25 µg/mL (≈ 0.448 µM) | 0.0625 µg/mL (≈ 0.112 µM) | 0.25 µg/mL (≈ 0.448 µM) | 64 µg/mL (≈ 115 µM) | 1 µg/mL (≈ 1.79 µM) | 1 µg/mL (≈ 1.79 µM) |
| CCCCCCCNc1ccc(-c2ccc(OCC(O)(Cn3cncn3)c3ccc(F)cc3F)cc2)cn1 (stereo unspecified) | 0.25 µg/mL (≈ 0.479 µM) | 1 µg/mL (≈ 1.92 µM) | 0.25 µg/mL (≈ 0.479 µM) | 0.25 µg/mL (≈ 0.479 µM) | 1 µg/mL (≈ 1.92 µM) | > 64 µg/mL | 1 µg/mL (≈ 1.92 µM) | 1 µg/mL (≈ 1.92 µM) |
| CNCC(=O)Nc1ccc(-c2ccc(OCC(O)(Cn3cncn3)c3ccc(F)cc3F)cc2)cn1 (stereo unspecified) | 0.25 µg/mL (≈ 0.506 µM) | 0.25 µg/mL (≈ 0.506 µM) | 1 µg/mL (≈ 2.02 µM) | 0.0625 µg/mL (≈ 0.126 µM) | 1 µg/mL (≈ 2.02 µM) | 4 µg/mL (≈ 8.09 µM) | 1 µg/mL (≈ 2.02 µM) | 16 µg/mL (≈ 32.4 µM) |
| O=C(CN1CCNCC1)Nc1ccc(-c2ccc(OCC(O)(Cn3cncn3)c3ccc(F)cc3F)cc2)cn1 (stereo unspecified) | 1 µg/mL (≈ 1.82 µM) | 4 µg/mL (≈ 7.28 µM) | 1 µg/mL (≈ 1.82 µM) | 16 µg/mL (≈ 29.1 µM) | 1 µg/mL (≈ 1.82 µM) | > 64 µg/mL | 1 µg/mL (≈ 1.82 µM) | 64 µg/mL (≈ 116 µM) |
| O=C(O)c1ccc(NCc2ccc(-c3ccc(OCC(O)(Cn4cncn4)c4ccc(F)cc4F)cc3)cc2)cc1 (stereo unspecified) | 0.0039 µg/mL (≈ 0.00701 µM) | 0.0625 µg/mL (≈ 0.112 µM) | 0.25 µg/mL (≈ 0.449 µM) | 0.0156 µg/mL (≈ 0.028 µM) | 1 µg/mL (≈ 1.8 µM) | 16 µg/mL (≈ 28.7 µM) | 1 µg/mL (≈ 1.8 µM) | > 64 µg/mL |
| CCNCc1ccc(-c2ccc(OCC(O)(Cn3cncn3)c3ccc(F)cc3F)cc2)cc1 (stereo unspecified) | 0.25 µg/mL (≈ 0.538 µM) | 0.25 µg/mL (≈ 0.538 µM) | 0.25 µg/mL (≈ 0.538 µM) | 1 µg/mL (≈ 2.15 µM) | 1 µg/mL (≈ 2.15 µM) | > 64 µg/mL | 1 µg/mL (≈ 2.15 µM) | 16 µg/mL (≈ 34.4 µM) |
| CC(C)NCc1ccc(-c2ccc(OCC(O)(Cn3cncn3)c3ccc(F)cc3F)cc2)cc1 (stereo unspecified) | 0.0625 µg/mL (≈ 0.131 µM) | 0.0625 µg/mL (≈ 0.131 µM) | 0.25 µg/mL (≈ 0.522 µM) | 1 µg/mL (≈ 2.09 µM) | 4 µg/mL (≈ 8.36 µM) | > 64 µg/mL | 1 µg/mL (≈ 2.09 µM) | 16 µg/mL (≈ 33.4 µM) |
| C[C@@H]1[C@H](O)[C@@H](C)/C=C/C=C/C=C/C=C/C=C/C=C/C=C/[C@H](O[C@@H]2O[C@H](C)[C@@H](O)[C@H](N)[C@@H]2O)C[C@@H]2O[C@](O)(C[C@@H](O)C[C@@H](O)[C@H](O)CC[C@@H](O)C[C@@H](O)CC(=O)O[C@H]1C)C[C@H](O)[C@H]2C(=O)O [AMPHOTERICIN B] | 4 µg/mL (≈ 4.33 µM) | 1 µg/mL (≈ 1.08 µM) | 16 µg/mL (≈ 17.3 µM) | 0.25 µg/mL (≈ 0.271 µM) | 16 µg/mL (≈ 17.3 µM) | 16 µg/mL (≈ 17.3 µM) | 1 µg/mL (≈ 1.08 µM) | 1 µg/mL (≈ 1.08 µM) |
| OC(Cn1cncn1)(Cn1cncn1)c1ccc(F)cc1F [FLUCONAZOLE] | 1 µg/mL (≈ 3.27 µM) | 4 µg/mL (≈ 13.1 µM) | 1 µg/mL (≈ 3.27 µM) | 16 µg/mL (≈ 52.2 µM) | 16 µg/mL (≈ 52.2 µM) | > 64 µg/mL | 1 µg/mL (≈ 3.27 µM) | 0.25 µg/mL (≈ 0.816 µM) |
| CCC(C)n1ncn(-c2ccc(N3CCN(c4ccc(OC[C@H]5CO[C@](Cn6cncn6)(c6ccc(Cl)cc6Cl)O5)cc4)CC3)cc2)c1=O (stereo partly specified) [ITRACONAZOLE] | 0.25 µg/mL (≈ 0.354 µM) | 0.0312 µg/mL (≈ 0.0442 µM) | 0.0156 µg/mL (≈ 0.0221 µM) | 0.5 µg/mL (≈ 0.709 µM) | 0.0625 µg/mL (≈ 0.0886 µM) | 1 µg/mL (≈ 1.42 µM) | 0.0625 µg/mL (≈ 0.0886 µM) | 1 µg/mL (≈ 1.42 µM) |
| CC(=O)N1CCN(c2ccc(OCC3COC(Cn4ccnc4)(c4ccc(Cl)cc4Cl)O3)cc2)CC1 (stereo unspecified) [KETOCONAZOLE] | 0.0625 µg/mL (≈ 0.118 µM) | 0.0625 µg/mL (≈ 0.118 µM) | 0.25 µg/mL (≈ 0.47 µM) | 0.25 µg/mL (≈ 0.47 µM) | 0.25 µg/mL (≈ 0.47 µM) | 1 µg/mL (≈ 1.88 µM) | 0.25 µg/mL (≈ 0.47 µM) | 0.0156 µg/mL (≈ 0.0294 µM) |
| CN(C/C=C/C#CC(C)(C)C)Cc1cccc2ccccc12 [TERBINAFINE] | 0.25 µg/mL (≈ 0.858 µM) | 0.25 µg/mL (≈ 0.858 µM) | 0.0625 µg/mL (≈ 0.214 µM) | 1 µg/mL (≈ 3.43 µM) | 0.0625 µg/mL (≈ 0.214 µM) | 0.0625 µg/mL (≈ 0.214 µM) | 0.0156 µg/mL (≈ 0.0535 µM) | 0.25 µg/mL (≈ 0.858 µM) |
| C[C@@H](c1ncncc1F)[C@](O)(Cn1cncn1)c1ccc(F)cc1F [VORICONAZOLE] | 0.0156 µg/mL (≈ 0.0447 µM) | 0.0625 µg/mL (≈ 0.179 µM) | 0.0156 µg/mL (≈ 0.0447 µM) | 0.25 µg/mL (≈ 0.716 µM) | 0.0625 µg/mL (≈ 0.179 µM) | 0.25 µg/mL (≈ 0.716 µM) | 0.0156 µg/mL (≈ 0.0447 µM) | 1 µg/mL (≈ 2.86 µM) |
